5 molecules from the supplement of paper PMC10307832 can be followed below.

SMILES strings stand for the structures.

The test system of one experiment is CAL-12T. The experiment can be described thus: relative viability (nuclei count vs DMSO), 5 days (fraction); higher = more cells survive. The following applies: first compound 0.253 µM. A digest of the protocol: (§1)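 Values are medians from duplicate plates. Each reflects relative viability, defined as the nuclei count of treated wells over that of vehicle wells. Lung cancer cell lines in 1536-well plates were pin-tool dosed one day after seeding with one drug alone or with a fixed anchor-drug dose plus five library-drug doses (not always all listed) in √10 steps, then fixed, stained and imaged at 4× after 5 days.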
With `Nc1cccc2c1CN(C1CCC(=O)NC1=O)C2=O` (stereo not given) [Lenalidomide] + CC(=O)c1c(C)c2cnc(Nc3ccc(N4CCNCC4)cn3)nc2n(C2CCCC2)c1=O [Palbociclib] (partner 0.5 µM), the relative viability is 0.402.

In turn, `Nc1cccc2c1CN(C1CCC(=O)NC1=O)C2=O` (stereo not given) [Lenalidomide] + O=C(CCCCCCC(=O)Nc1ccccc1)NO [Vorinostat] (partner 1 µM) returned a relative viability of 0.874.

Molecule `Nc1cccc2c1CN(C1CCC(=O)NC1=O)C2=O` (stereo not given) [Lenalidomide] + COc1cccc2cc(-c3nc([C@H]4CC[C@H](C(=O)O)CC4)n4ncnc(N)c34)[nH]c12 [OSI-027] (partner 0.5 µM) registered a relative viability of 0.599.

Still in this experiment, the particulars now being: first compound 0.8 µM.
On to `Nc1cccc2c1CN(C1CCC(=O)NC1=O)C2=O` (stereo not given) [Lenalidomide] + N=C(N)NC(=N)NCCc1ccccc1 [Phenformin] (partner 250 µM), for which the relative viability amounted to 0.633.

The molecule `Nc1cccc2c1CN(C1CCC(=O)NC1=O)C2=O` (stereo not given) [Lenalidomide] + Cc1cc(Nc2cc(N3CCN(C)CC3)nc(Sc3ccc(NC(=O)C4CC4)cc3)n2)n[nH]1 [Tozasertib] (partner 0.1 µM) showed a relative viability of 0.302.

`Nc1cccc2c1CN(C1CCC(=O)NC1=O)C2=O` (stereo not given) [Lenalidomide] + CC(=O)c1c(C)c2cnc(Nc3ccc(N4CCNCC4)cn3)nc2n(C2CCCC2)c1=O [Palbociclib] (partner 0.5 µM): the relative viability came to 0.579.

In turn, `Nc1cccc2c1CN(C1CCC(=O)NC1=O)C2=O` (stereo not given) [Lenalidomide] + O=C(CCCCCCC(=O)Nc1ccccc1)NO [Vorinostat] (partner 1 µM) displayed a relative viability of 0.887.

Take `Nc1cccc2c1CN(C1CCC(=O)NC1=O)C2=O` (stereo not given) [Lenalidomide] + COc1cccc2cc(-c3nc([C@H]4CC[C@H](C(=O)O)CC4)n4ncnc(N)c34)[nH]c12 [OSI-027] (partner 0.5 µM): the relative viability was determined as 0.555.

Still in this experiment, the particulars now being: first compound 2.53 µM.
The molecule `Nc1cccc2c1CN(C1CCC(=O)NC1=O)C2=O` (stereo not given) [Lenalidomide] + N=C(N)NC(=N)NCCc1ccccc1 [Phenformin] (partner 250 µM) had a relative viability of 0.639.

Regarding `Nc1cccc2c1CN(C1CCC(=O)NC1=O)C2=O` (stereo not given) [Lenalidomide] + Cc1cc(Nc2cc(N3CCN(C)CC3)nc(Sc3ccc(NC(=O)C4CC4)cc3)n2)n[nH]1 [Tozasertib] (partner 0.1 µM), the relative viability worked out at 0.463.

As for `Nc1cccc2c1CN(C1CCC(=O)NC1=O)C2=O` (stereo not given) [Lenalidomide] + CC(=O)c1c(C)c2cnc(Nc3ccc(N4CCNCC4)cn3)nc2n(C2CCCC2)c1=O [Palbociclib] (partner 0.5 µM), the relative viability was determined as 0.785.

For the molecule `Nc1cccc2c1CN(C1CCC(=O)NC1=O)C2=O` (stereo not given) [Lenalidomide] + O=C(CCCCCCC(=O)Nc1ccccc1)NO [Vorinostat] (partner 1 µM), the relative viability came out at 0.999.

For `Nc1cccc2c1CN(C1CCC(=O)NC1=O)C2=O` (stereo not given) [Lenalidomide] + COc1cccc2cc(-c3nc([C@H]4CC[C@H](C(=O)O)CC4)n4ncnc(N)c34)[nH]c12 [OSI-027] (partner 0.5 µM), the relative viability worked out at 1.01.

Staying with this experiment, now noted: first compound 8 µM.
In turn, `Nc1cccc2c1CN(C1CCC(=O)NC1=O)C2=O` (stereo not given) [Lenalidomide] + N=C(N)NC(=N)NCCc1ccccc1 [Phenformin] (partner 250 µM) gave a relative viability of 0.647.

In turn, `Nc1cccc2c1CN(C1CCC(=O)NC1=O)C2=O` (stereo not given) [Lenalidomide] + Cc1cc(Nc2cc(N3CCN(C)CC3)nc(Sc3ccc(NC(=O)C4CC4)cc3)n2)n[nH]1 [Tozasertib] (partner 0.1 µM) came in with a relative viability of 0.352.

Take `Nc1cccc2c1CN(C1CCC(=O)NC1=O)C2=O` (stereo not given) [Lenalidomide] + CC(=O)c1c(C)c2cnc(Nc3ccc(N4CCNCC4)cn3)nc2n(C2CCCC2)c1=O [Palbociclib] (partner 0.5 µM): the relative viability came out at 0.472.

`Nc1cccc2c1CN(C1CCC(=O)NC1=O)C2=O` (stereo not given) [Lenalidomide] + O=C(CCCCCCC(=O)Nc1ccccc1)NO [Vorinostat] (partner 1 µM): the relative viability was 0.907.

In turn, `Nc1cccc2c1CN(C1CCC(=O)NC1=O)C2=O` (stereo not given) [Lenalidomide] + COc1cccc2cc(-c3nc([C@H]4CC[C@H](C(=O)O)CC4)n4ncnc(N)c34)[nH]c12 [OSI-027] (partner 0.5 µM) returned a relative viability of 0.619.

In the next experiment the test system is H3255. The experiment is described as above. The following applies: first compound 0.253 µM. Summed up: as §1
`Nc1cccc2c1CN(C1CCC(=O)NC1=O)C2=O` (stereo not given) [Lenalidomide] + N=C(N)NC(=N)NCCc1ccccc1 [Phenformin] (partner 250 µM) came in with a relative viability of 0.331.

`Nc1cccc2c1CN(C1CCC(=O)NC1=O)C2=O` (stereo not given) [Lenalidomide] + Cc1cc(Nc2cc(N3CCN(C)CC3)nc(Sc3ccc(NC(=O)C4CC4)cc3)n2)n[nH]1 [Tozasertib] (partner 0.1 µM) showed a relative viability of 0.602.

`Nc1cccc2c1CN(C1CCC(=O)NC1=O)C2=O` (stereo not given) [Lenalidomide] + CC(=O)c1c(C)c2cnc(Nc3ccc(N4CCNCC4)cn3)nc2n(C2CCCC2)c1=O [Palbociclib] (partner 0.5 µM) came in with a relative viability of 0.312.

Molecule `Nc1cccc2c1CN(C1CCC(=O)NC1=O)C2=O` (stereo not given) [Lenalidomide] + O=C(CCCCCCC(=O)Nc1ccccc1)NO [Vorinostat] (partner 1 µM) returned a relative viability of 0.716.

For the molecule `Nc1cccc2c1CN(C1CCC(=O)NC1=O)C2=O` (stereo not given) [Lenalidomide] + COc1cccc2cc(-c3nc([C@H]4CC[C@H](C(=O)O)CC4)n4ncnc(N)c34)[nH]c12 [OSI-027] (partner 0.5 µM), the relative viability was determined as 0.633.

Still in this experiment, the particulars now being: first compound 0.8 µM.
On to `Nc1cccc2c1CN(C1CCC(=O)NC1=O)C2=O` (stereo not given) [Lenalidomide] + N=C(N)NC(=N)NCCc1ccccc1 [Phenformin] (partner 250 µM), for which the relative viability came out at 0.38.

With `Nc1cccc2c1CN(C1CCC(=O)NC1=O)C2=O` (stereo not given) [Lenalidomide] + Cc1cc(Nc2cc(N3CCN(C)CC3)nc(Sc3ccc(NC(=O)C4CC4)cc3)n2)n[nH]1 [Tozasertib] (partner 0.1 µM), the relative viability came to 0.79.

Consider `Nc1cccc2c1CN(C1CCC(=O)NC1=O)C2=O` (stereo not given) [Lenalidomide] + CC(=O)c1c(C)c2cnc(Nc3ccc(N4CCNCC4)cn3)nc2n(C2CCCC2)c1=O [Palbociclib] (partner 0.5 µM), for which the relative viability turned out to be 0.302.

`Nc1cccc2c1CN(C1CCC(=O)NC1=O)C2=O` (stereo not given) [Lenalidomide] + O=C(CCCCCCC(=O)Nc1ccccc1)NO [Vorinostat] (partner 1 µM): the relative viability is 0.515.

For the molecule `Nc1cccc2c1CN(C1CCC(=O)NC1=O)C2=O` (stereo not given) [Lenalidomide] + COc1cccc2cc(-c3nc([C@H]4CC[C@H](C(=O)O)CC4)n4ncnc(N)c34)[nH]c12 [OSI-027] (partner 0.5 µM), the relative viability turned out to be 0.65.

The same experiment, now with this note: first compound 2.53 µM.
On to `Nc1cccc2c1CN(C1CCC(=O)NC1=O)C2=O` (stereo not given) [Lenalidomide] + N=C(N)NC(=N)NCCc1ccccc1 [Phenformin] (partner 250 µM), for which the relative viability was found to be 0.329.

As for `Nc1cccc2c1CN(C1CCC(=O)NC1=O)C2=O` (stereo not given) [Lenalidomide] + Cc1cc(Nc2cc(N3CCN(C)CC3)nc(Sc3ccc(NC(=O)C4CC4)cc3)n2)n[nH]1 [Tozasertib] (partner 0.1 µM), the relative viability was 0.662.
